Measured values taken from patent US20030229067A1, “Pyrrolopyrimidine A2b selective antagonist compounds, their synthesis and use” (priority 2001, published 2003).

Key:
human A2B receptor = target: T1, human A2B receptor (Homo sapiens, UniProt P29275); assay: Radioligand binding assay ([3H]-DPCPX competition), membranes of HEK293 stably expressing human A2B receptor; conditions: for selectivity for the A2B receptor relative to the A1, A2A, and A3 receptor: fold selectivity A2B over A1, A2A and A3 receptors
T1 construct: expressed in transfected cells; membranes prepared from the cells
T1 sequence (P29275 1-332): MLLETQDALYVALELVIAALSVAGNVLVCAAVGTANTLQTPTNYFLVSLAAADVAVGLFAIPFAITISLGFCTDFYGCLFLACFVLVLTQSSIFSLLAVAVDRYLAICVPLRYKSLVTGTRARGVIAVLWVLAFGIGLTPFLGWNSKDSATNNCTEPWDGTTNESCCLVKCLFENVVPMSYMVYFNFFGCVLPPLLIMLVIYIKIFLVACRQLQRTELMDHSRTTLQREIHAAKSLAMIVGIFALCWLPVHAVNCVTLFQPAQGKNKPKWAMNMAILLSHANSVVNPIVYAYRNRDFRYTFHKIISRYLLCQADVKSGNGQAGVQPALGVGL
Text: Materials. [^3H]—DPCPX [cyclopentyl-1,3-dipropylxanthine] (120 Ci/mmol) was purchased from New England Nuclear (Boston, Mass.). The adenosine deaminase and complete protease inhibitor cocktail tablets were purchased from Boehringer Mannheim Corp. (Indianapolis, Ind.). Cell culture reagents were from Life Technologies (Grass Island, N.Y.) except for serum that was from Hyclone (Logan, Utah).
Cell line. HEK293 stably expressing the human A2B receptor were used for radioligand binding assays. Cells were grown in DMEM Glutamax containing 10% FBS, 0.2 mg/ml G418 at 37° C. in 5% CO2/95% atmosphere.
Membrane Preparation. Cells were washed with cold PBS buffer twice, scraped off the plates, and centrifuged at 1000×g for 5 minutes. Cells were homogenized with ice-cold buffer of 5 mM Tris, pH 7.4, 5 mM EDTA, 5 mM EGTA, protease inhibitor cocktail tablets and incubated for 10 min on ice. The homogenate was centrifuged at 32,000×g for 30 min. The membranes were resuspended in buffer of 50 mM Tris, pH 7.4, 0.6 mM EDTA, 5 mM MgCl2, stored at −80° C. until use. Protein concentration was determined by the methods of Bradford.
Radioligand binding assay. Membranes were homogenized in buffer containing 10 mM HEPES-KOH, pH 7.4 containing 1.0 mM EDTA; 2 U/ml adenosine deaminase; and 0.1 mM Benzamidine and incubated for 30 min at room temperature. Dissociation constants of radioligand (Kd values) and maximum binding sites (Bmax) were determined in saturation binding experiments. Saturation binding assays were carried out in a reaction mixture containing 50 μl of membrane suspension, 25 μl of 4% DMSO, 25 μl of increasing amounts of radioligand, [^3H]—DPCPX (final concentration 1-200 nM). […] Nonspecific binding was measured in the presence of […] NECA. Compounds were dissolved in
DMSO and then diluted with 4% DMSO; the final maximum DMSO concentrations were 1%. […] Reactions were terminated by rapid filtration over GF/C filters using a cell harvester. The filters were washed ten times with 0.4 ml of ice-cold buffer containing 10 mM HEPES-KOH, pH 7.4. The filters were dried, covered with scintillation fluid and counted with a TopCount.

SMILES	selectivity for the A2B receptor relative to the A1, A2A, and A3 receptor (human A2B receptor; binding assays) [×]	melting point	further results
CC(=O)NCCNc1nc(-c2ccccc2)nc2[nH]c(COC3CCN(CCc4ccccc4Cl)CC3)cc12 [17.7, N-[2-(6-{1-[2-(2-Chlorophenyl)ethyl]piperidin-4-yloxymethyl}-2-phenyl-7H-pyrrolo[2,3-d]pyrimidin-4-ylamino)ethyl]acetamide]	26	–	Ki (human A2B receptor; [3H]-DPCPX competition binding): 5 nM
CC(=O)NCCNc1nc(-c2ccccc2)nc2[nH]c(COC3CCN(CCc4ccccc4Cl)CC3)cc12.CS(=O)(=O)O [17.7.MsOH, N-[2-(-6-{1-[2-(2-Chlorophenyl)ethyl]piperidine-4-yloxymethyl}-2-phenyl-7H-pyrrolo[2,3-d]pyrimidin-4-ylamino)ethyl]acetamide methanesulfonic acid salt]	24	–	–
CC(=O)NCCNc1nc(-c2ccccc2)nc2[nH]c(C(=O)N3CCN(c4ccc(F)cc4)CC3)cc12 [26.38, N-(2-{6-[4-(4-Fluorophenyl)-piperazine-1-carbonyl]-2-phenyl-7H-pyrrolo[2,3-d]pyrimidin-4-ylamino}-ethyl)-acetamide]	–	234 °C	–
CC(=O)NCCNc1nc(-c2ccccc2)nc2[nH]c(C(=O)N3CCN(c4ccc(C(F)(F)F)cn4)CC3)cc12 [26.39, N-(2-{2-Phenyl-6-[4-(5-trifluoromethylpyridin-2-yl)-piperazine-1-carbonyl]-7H-pyrrolo[2,3-d]pyrimidin-4-ylamino}-ethyl)-acetamide]	–	270 to 273 °C	–
COC1(c2ccccc2Cl)CCN(C(=O)c2cc3c(NCCNC(C)=O)nc(-c4ccccc4)nc3[nH]2)CC1 [26.42, N-(2-{6-[4-(2-Chlorophenyl)-4-methoxypiperidine-1-carbonyl]-2-phenyl-7H-pyrrolo[2,3-d]pyrimidin-4-ylamino}-ethyl)-acetamide]	57	201 to 202 °C	–
COC1(c2ccc(F)cc2)CCN(C(=O)c2cc3c(NCCNC(C)=O)nc(-c4ccccc4)nc3[nH]2)CC1 [26.48, N-(2-{6-[4-(4-Fluorophenyl)4-methoxypiperidine-1-carbonyl]-2-phenyl-7H-pyrrolo[2,3-d]pyrimidin-4-ylamino}-ethyl)-acetamide]	–	134 to 137 °C	–
CC(=O)NCCNc1nc(-c2ccccc2)nc2[nH]c(C(=O)N3CCC4(CC3)CCN(Cc3ccccc3)C4=O)cc12 [26.49, N-{2-[6-(2-Benzyl-1-oxo-2,8-diazaspiro[4.5]decane-8-carbonyl)-2-pheny1-7H-pyrrolo[2,3-d]pyrimidin-4-ylamino]-ethyl}-acetamide]	–	140 °C (dec.)	–
COC1(c2ccccc2Cl)CCN(C(=O)c2cc3c(NCCNC(=O)c4cc5c(NCCNC(C)=O)nc(-c6ccccc6)nc5[nH]4)nc(-c4ccccc4)nc3[nH]2)CC1 [26.51, 4-(2-Acetylaminoethylamino)-2-phenyl-7H-pyrrolo[2,3-d]pyrimidine-6-carboxylic acid (2-{6-[4-(2-chlorophenyl)-4-methoxypiperidine-1-carbonyl]-2-phenyl-7H-pyrrolo[2,3-d]pyrimidin-4-ylamino}-ethyl)-amide]	–	180 to 185 °C (dec.)	–
CC(=O)NCCNc1nc(-c2ccccc2)nc2[nH]c(C(=O)N3CCC(Cc4ccccc4)CC3)cc12 [26.54, N-{2-[6-(4-Benzylpiperidine-1-carbonyl)-2-phenyl-7H-pyrrolo[2,3-d]pyrimidin-4-ylamino]-ethyl}-acetamide]	–	260 to 261 °C	–
CC(=O)NCCNc1nc(-c2ccccc2)nc2[nH]c(C(=O)N3CCN(c4ccc(Cl)cc4)CC3)cc12 [26.71, N-(2-{6-[4-(4-Chlorophenyl)-piperazine-1-carbonyl]-2-phenyl-7H-pyrrolo[2,3-d]pyrimidin-4-ylamino}-ethyl)-acetamide]	82	–	receptor profile in words (selectivity listing) (human A2B receptor; binding assays, A2B vs A1, A2A, A3): A1/A2B dual antagonist
CC(=O)NCCNc1nc(-c2ccccc2)nc2[nH]c(C(=O)N3CCN(CCCc4ccc(Cl)cc4)CC3)cc12 [26.135, N-[2-(6-{4-[3-(4-Chlorophenyl)-propyl]-piperazine-1-carbonyl}-2-phenyl-7H-pyrrolo[2,3-d]pyrimidin-4-ylamino)-ethyl]-acetamide]	19	–	–
CC(=O)NCCNc1nc(-c2ccccc2)nc2[nH]c(C(=O)N3CCN(CCCc4ccc(Cl)cc4)CC3)cc12.CS(=O)(=O)O [26.135.MsOH, N-[2-(6-{4-[3-(4-Chlorophenyl)-propyl]-piperazine-1-carbonyl}-2-phenyl-7H-pyrrolo[2,3-d]pyrimidin-4-ylamino)-ethyl]-acetamide methanesulfonate salt]	17	–	–
CC(=O)NCCNc1nc(-c2ccccc2)nc2[nH]c(C(=O)N3CCC(C#N)(c4ccccc4Cl)CC3)cc12 [26.237, N-(2-{6-[4-(2-Chlorophenyl)-4-cyanopiperidine-1-carbonyl]-2-phenyl-7H-pyrrolo[2,3-d]pyrimidin-4-ylamino}-ethyl)-acetamide]	57	–	–
CC(=O)NCCNc1nc(-c2ccccc2)nc2[nH]c(C(=O)N3CCC(C#N)(c4ccccc4Cl)CC3)cc12.CS(=O)(=O)O [26.237.MsOH, N-(2-{6-[4-(2-Chlorophenyl)4-cyanopiperidine-1-carbonyl]-2-phenyl-7H-pyrrolo[2,3-d]pyrimidin-4-ylamino}-ethyl)-acetamide methanesulfonic acid salt]	33	–	–
